The source made the active and inactive calls. No cut-off for these calls is given here.
Legend:
[1] = molecular target: T1, Phosphatidylinositol 4,5-bisphosphate 3-kinase catalytic subunit delta isoform (Homo sapiens, UniProt O00329); assay: Inhibition of human PI3Kdelta (R108 to Q1044 residues) expressed in mammalian expression system incubated for 60 mins by ADAPTA assay
T1 sequence (O00329 whole entry): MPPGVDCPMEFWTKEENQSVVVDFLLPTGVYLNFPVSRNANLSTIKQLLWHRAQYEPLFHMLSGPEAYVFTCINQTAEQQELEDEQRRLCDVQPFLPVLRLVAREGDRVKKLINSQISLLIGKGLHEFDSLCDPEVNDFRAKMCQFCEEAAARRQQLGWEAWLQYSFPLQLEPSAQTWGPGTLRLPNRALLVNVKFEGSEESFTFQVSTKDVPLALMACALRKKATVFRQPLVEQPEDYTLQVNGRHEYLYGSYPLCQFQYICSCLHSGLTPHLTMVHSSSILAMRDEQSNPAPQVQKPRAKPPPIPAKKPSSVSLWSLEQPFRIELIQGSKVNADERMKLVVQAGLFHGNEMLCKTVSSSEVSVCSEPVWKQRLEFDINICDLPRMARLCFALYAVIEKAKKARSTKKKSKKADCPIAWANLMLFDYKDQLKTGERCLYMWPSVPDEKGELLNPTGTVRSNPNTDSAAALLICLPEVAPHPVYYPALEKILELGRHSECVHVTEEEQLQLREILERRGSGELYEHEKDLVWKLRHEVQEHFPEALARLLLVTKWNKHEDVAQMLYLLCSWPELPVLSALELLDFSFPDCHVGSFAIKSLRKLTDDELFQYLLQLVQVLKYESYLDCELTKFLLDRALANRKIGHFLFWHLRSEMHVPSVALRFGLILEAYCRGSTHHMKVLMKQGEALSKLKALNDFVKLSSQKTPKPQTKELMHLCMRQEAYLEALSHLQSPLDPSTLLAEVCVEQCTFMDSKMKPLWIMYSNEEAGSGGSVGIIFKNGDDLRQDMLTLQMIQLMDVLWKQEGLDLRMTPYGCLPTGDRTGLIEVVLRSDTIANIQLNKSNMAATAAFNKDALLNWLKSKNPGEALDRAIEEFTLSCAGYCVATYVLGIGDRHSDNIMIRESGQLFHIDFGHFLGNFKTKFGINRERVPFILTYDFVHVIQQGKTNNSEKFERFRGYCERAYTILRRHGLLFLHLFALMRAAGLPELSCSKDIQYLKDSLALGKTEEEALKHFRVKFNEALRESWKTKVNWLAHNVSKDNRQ

[2] = molecular target: Phosphatidylinositol 4,5-bisphosphate 3-kinase catalytic subunit gamma isoform (Homo sapiens, UniProt P48736); assay: Inhibition of human PI3Kgamma (S144 to A1102 residues) expressed in mammalian expression system incubated for 60 mins by ADAPTA assay
[3] = Antiproliferative activity against human Jurkat cells after 3 days by CellTiter-Glo assay; type: functional, cell-based; conditions: 72 h
[4] = Antiproliferative activity against human MOLT4 cells after 3 days by CellTiter-Glo assay; type: functional, cell-based; conditions: MOLT-4, 72 h
[5] = Antiproliferative activity against human MV4-11 cells after 3 days by CellTiter-Glo assay; type: functional, cell-based; conditions: MV4-11, 72 h
[6] = Antiproliferative activity against human MOLM14 cells after 3 days by CellTiter-Glo assay; type: functional, cell-based; conditions: MOLM-14, 72 h
[7] = Antiproliferative activity against human Loucy cells after 3 days by CellTiter-Glo assay; type: functional, cell-based; conditions: 72 h
[8] = (§1) Antiproliferative activity against patient-derived IgM-stimulated CLL cells after 3 days by CellTiter-Glo assay; type: functional, cell-based; conditions: Homo sapiens, 72 h
CLL = assay: as §1; type: functional, cell-based; conditions: Homo sapiens
Aurora kinase A = molecular target: T2, Aurora kinase A (Homo sapiens, UniProt O14965); assay: Inhibition of human Aurora kinase A (E122 to K401 residues) expressed in mammalian expression system by Z'LYTE assay
T2 sequence (O14965 whole entry): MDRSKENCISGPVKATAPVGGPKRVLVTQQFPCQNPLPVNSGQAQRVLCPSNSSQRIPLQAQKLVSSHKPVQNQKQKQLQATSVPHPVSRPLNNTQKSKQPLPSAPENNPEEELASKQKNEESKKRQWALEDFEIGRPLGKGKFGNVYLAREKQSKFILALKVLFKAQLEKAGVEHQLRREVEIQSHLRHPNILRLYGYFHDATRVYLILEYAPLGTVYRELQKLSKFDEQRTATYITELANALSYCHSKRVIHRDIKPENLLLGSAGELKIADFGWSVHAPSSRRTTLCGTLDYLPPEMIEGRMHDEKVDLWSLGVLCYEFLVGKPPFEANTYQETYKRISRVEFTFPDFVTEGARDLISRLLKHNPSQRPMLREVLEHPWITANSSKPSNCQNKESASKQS

Aurora kinase B = Aurora kinase B (Homo sapiens, UniProt Q96GD4); assay: Inhibition of human Aurora kinase B (D25 to A303 residues) expressed in mammalian expression system by Z'LYTE assay
[9] = molecular target: T3, Phosphatidylinositol 5-phosphate 4-kinase type-2 gamma (Homo sapiens) (UniProt Q8TBX8); assay: Inhibition of human PIP5K2C (M1 to A421 residues) expressed at 1 uM
T3 sequence (whole entry): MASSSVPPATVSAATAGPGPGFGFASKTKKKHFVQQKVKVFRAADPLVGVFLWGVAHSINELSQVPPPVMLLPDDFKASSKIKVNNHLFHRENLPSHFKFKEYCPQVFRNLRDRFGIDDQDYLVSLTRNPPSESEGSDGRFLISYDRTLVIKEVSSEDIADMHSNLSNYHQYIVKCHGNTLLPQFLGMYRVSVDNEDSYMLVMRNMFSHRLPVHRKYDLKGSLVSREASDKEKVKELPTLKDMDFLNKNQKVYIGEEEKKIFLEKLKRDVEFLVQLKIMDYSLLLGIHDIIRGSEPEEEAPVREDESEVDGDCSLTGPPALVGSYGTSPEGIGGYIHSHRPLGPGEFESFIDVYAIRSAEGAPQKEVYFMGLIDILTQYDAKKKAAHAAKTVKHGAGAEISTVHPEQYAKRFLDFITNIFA

[10] = molecular target: Phosphatidylinositol 4,5-bisphosphate 3-kinase catalytic subunit beta isoform (Homo sapiens) (UniProt P42338); assay: Inhibition of p110beta in HMEC assessed as reduction in Akt phosphorylation at Ser-473 residue at 0.01 to 1 uM after 1 hr by Western blot analysis
[11] = molecular target: Phosphatidylinositol 4,5-bisphosphate 3-kinase catalytic subunit beta isoform (Homo sapiens) (UniProt P42338); assay: Inhibition of p110beta in HMEC assessed as reduction in Akt phosphorylation at Thr-308 residue at 0.01 to 1 uM after 1 hr by Western blot analysis
[12] = molecular target: Phosphatidylinositol 4,5-bisphosphate 3-kinase catalytic subunit beta isoform (Homo sapiens) (UniProt P42338); assay: Inhibition of p110beta in HMEC assessed as reduction in S6RP phosphorylation at Ser-235/236 residue at 0.01 to 1 uM after 1 hr by Western blot analysis

Aurora kinase B, sequence (Q96GD4 whole entry, the tested form may be a part): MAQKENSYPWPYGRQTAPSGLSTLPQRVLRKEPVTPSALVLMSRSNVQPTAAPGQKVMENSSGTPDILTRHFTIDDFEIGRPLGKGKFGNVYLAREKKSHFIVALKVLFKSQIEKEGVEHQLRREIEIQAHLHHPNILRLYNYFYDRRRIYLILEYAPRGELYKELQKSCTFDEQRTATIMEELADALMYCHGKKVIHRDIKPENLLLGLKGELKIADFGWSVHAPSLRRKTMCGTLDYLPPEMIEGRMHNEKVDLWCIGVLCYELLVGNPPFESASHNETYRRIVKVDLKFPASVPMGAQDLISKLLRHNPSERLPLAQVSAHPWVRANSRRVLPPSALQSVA
Phosphatidylinositol 4,5-bisphosphate 3-kinase catalytic subunit gamma isoform, sequence (P48736 whole entry, the tested form may be a part, canonical isoform): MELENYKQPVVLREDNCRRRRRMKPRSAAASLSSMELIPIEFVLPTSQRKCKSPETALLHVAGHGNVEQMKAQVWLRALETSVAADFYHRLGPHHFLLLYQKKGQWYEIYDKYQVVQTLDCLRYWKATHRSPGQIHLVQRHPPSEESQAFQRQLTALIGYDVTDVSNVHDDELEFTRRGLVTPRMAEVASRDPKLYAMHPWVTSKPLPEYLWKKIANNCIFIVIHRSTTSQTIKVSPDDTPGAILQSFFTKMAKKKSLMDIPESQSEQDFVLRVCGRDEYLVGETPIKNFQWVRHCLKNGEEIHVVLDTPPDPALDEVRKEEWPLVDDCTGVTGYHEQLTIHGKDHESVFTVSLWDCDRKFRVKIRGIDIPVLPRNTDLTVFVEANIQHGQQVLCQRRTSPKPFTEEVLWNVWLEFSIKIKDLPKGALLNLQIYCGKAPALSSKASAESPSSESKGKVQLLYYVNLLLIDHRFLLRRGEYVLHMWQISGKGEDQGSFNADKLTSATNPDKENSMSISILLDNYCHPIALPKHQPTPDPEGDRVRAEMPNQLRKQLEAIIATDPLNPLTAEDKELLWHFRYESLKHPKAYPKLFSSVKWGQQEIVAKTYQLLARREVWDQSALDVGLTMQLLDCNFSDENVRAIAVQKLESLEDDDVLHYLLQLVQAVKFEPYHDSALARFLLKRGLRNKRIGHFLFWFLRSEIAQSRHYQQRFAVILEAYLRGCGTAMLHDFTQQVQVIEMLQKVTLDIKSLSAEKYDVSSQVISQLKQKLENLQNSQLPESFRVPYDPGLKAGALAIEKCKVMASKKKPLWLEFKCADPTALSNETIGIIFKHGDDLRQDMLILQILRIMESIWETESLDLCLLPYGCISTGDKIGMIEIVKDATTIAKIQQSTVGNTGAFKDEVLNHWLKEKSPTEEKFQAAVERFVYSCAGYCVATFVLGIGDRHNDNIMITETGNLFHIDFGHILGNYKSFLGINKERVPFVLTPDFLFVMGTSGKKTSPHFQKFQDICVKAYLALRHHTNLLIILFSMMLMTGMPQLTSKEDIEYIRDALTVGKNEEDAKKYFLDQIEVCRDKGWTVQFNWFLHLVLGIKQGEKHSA
Phosphatidylinositol 4,5-bisphosphate 3-kinase catalytic subunit beta isoform (Homo sapiens), sequence (P42338 whole entry, looked up, canonical isoform): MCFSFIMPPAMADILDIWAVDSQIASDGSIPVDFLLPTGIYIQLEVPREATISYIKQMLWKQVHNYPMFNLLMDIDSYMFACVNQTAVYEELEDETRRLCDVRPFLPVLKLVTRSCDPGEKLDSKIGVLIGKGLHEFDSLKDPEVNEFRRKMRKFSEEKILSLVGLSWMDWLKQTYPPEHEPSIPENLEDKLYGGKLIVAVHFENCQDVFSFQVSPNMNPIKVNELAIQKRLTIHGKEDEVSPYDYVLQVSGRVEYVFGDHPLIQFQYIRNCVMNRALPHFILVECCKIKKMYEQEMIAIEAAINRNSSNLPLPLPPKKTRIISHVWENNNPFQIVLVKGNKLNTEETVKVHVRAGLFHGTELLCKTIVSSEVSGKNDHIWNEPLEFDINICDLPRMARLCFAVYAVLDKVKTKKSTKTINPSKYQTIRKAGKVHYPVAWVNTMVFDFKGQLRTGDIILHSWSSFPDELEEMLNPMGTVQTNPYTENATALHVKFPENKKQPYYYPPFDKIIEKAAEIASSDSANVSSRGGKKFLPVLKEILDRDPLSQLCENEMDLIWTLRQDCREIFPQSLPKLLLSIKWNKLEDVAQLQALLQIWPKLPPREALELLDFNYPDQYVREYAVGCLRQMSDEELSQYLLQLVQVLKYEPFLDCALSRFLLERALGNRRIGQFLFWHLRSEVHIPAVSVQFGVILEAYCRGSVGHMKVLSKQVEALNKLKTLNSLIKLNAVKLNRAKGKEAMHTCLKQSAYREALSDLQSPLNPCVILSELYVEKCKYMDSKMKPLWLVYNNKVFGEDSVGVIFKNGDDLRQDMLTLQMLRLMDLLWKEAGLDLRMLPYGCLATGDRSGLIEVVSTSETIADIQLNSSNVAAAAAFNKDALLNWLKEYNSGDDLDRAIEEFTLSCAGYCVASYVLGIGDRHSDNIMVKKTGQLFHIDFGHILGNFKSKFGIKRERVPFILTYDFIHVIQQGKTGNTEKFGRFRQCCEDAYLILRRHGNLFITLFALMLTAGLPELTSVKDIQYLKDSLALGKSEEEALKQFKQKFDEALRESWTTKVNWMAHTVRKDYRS

| Structure (SMILES) | IC50 [1] [µM] | IC50 [2] [µM] | further results |
| --- | --- | --- | --- |
| CCC(=O)N1CCN(S(=O)(=O)c2cccc(Nc3ncc4c(n3)N(C)c3ccc(C)cc3C(=O)N4C)c2)CC1 | 0.0017 | 0.011 | IC50 [3]: 1.6 µM; IC50 [4]: 1.2 µM; IC50 [5]: 0.96 µM; IC50 [6]: 0.61 µM; IC50 [7]: 0.72 µM; IC50 [8]: 3 µM; Activity (CLL): Dose-dependent effect |
| Cc1cc(S(N)(=O)=O)ccc1Nc1ncc2c(n1)N(C)c1ccccc1C(=O)N2C | 0.82 | 2.4 | IC50 (Aurora kinase A): 4.9 µM; IC50 (Aurora kinase B): 9.4 µM |
| C=CC(=O)N1CCN(S(=O)(=O)c2cccc(Nc3ncc4c(n3)N(C)c3ccc(C)cc3C(=O)N4C)c2)CC1 | 0.0015 | 0.0028 | inhibition [9]: Active; IC50 [3]: 0.166 µM; IC50 [4]: 0.033 µM |
| C=CC(=O)NC1CCN(S(=O)(=O)c2cccc(Nc3ncc4c(n3)N(C)c3ccc(C)cc3C(=O)N4C)c2)CC1 | 0.02 | 0.12 | IC50 (Aurora kinase A): 0.35 µM |
| CN1C(=O)c2ccccc2N(C)c2nc(Nc3ccc(S(N)(=O)=O)cc3)ncc21 | 0.049 | 0.015 | IC50 (Aurora kinase A): 0.0048 µM; IC50 (Aurora kinase B): 0.013 µM |
| C[C@H](Nc1ncnc2nc[nH]c12)c1cc2cccc(Cl)c2c(=O)n1-c1ccccc1 [DUVELISIB] |  |  | inhibition [10]: Active; inhibition [11]: Active; inhibition [12]: Active; IC50 [3]: 1.9 µM; IC50 [4]: 2.3 µM; IC50 [5]: 4.4 µM; IC50 [6]: 1.2 µM; IC50 [7]: 0.98 µM; IC50 [8]: > 10 µM |
| CC[C@H](Nc1ncnc2[nH]cnc12)c1nc2cccc(F)c2c(=O)n1-c1ccccc1 [IDELALISIB] |  |  | IC50 [8]: > 10 µM |
| C=CC(=O)Nc1ccc(NS(=O)(=O)c2ccc(Nc3ncc4c(n3)N(C)c3ccc(C)cc3C(=O)N4C)cc2)cc1 | 0.096 | 0.31 |  |
| Cc1ccc2c(c1)C(=O)N(C)c1cnc(Nc3cccc(S(N)(=O)=O)c3)nc1N2C | 0.076 | 0.11 |  |
| Cc1ccc2c(c1)C(=O)N(C)c1cnc(Nc3ccc(S(N)(=O)=O)cc3)nc1N2C | 0.03 | 0.02 | IC50 (Aurora kinase A): 0.016 µM; IC50 (Aurora kinase B): 0.0042 µM |
| Cc1ccc2c(c1)C(=O)N(C)c1cnc(Nc3ccc(S(=O)(=O)N4CCN(C)CC4)cc3)nc1N2C | 2.6 | 3.3 |  |
| C=CC(=O)Nc1ccc(NS(=O)(=O)c2cccc(Nc3ncc4c(n3)N(C)c3ccc(C)cc3C(=O)N4C)c2)cc1 | 0.029 | 0.015 |  |
| C=CC(=O)Nc1cccc(NS(=O)(=O)c2cccc(Nc3ncc4c(n3)N(C)c3ccc(C)cc3C(=O)N4C)c2)c1 | 0.039 | 0.33 |  |

The remaining compounds from weak to strong by IC50 [1], led by results:

| IC50 [1] [µM] | IC50 [2] [µM] | Structure (SMILES) | further results |
| --- | --- | --- | --- |
| 0.44 | 0.34 | C=CC(=O)Nc1cccc(NS(=O)(=O)c2ccc(Nc3ncc4c(n3)N(C)c3ccc(C)cc3C(=O)N4C)cc2)c1 |  |
| 0.23 | 0.11 | C=CC(=O)N1CCN(S(=O)(=O)c2ccc(Nc3ncc4c(n3)N(C)c3ccc(C)cc3C(=O)N4C)cc2)CC1 |  |
| 0.12 | 0.049 | C=CC(=O)NC1CCN(S(=O)(=O)c2ccc(Nc3ncc4c(n3)N(C)c3ccc(C)cc3C(=O)N4C)cc2)CC1 |  |
| 0.051 | 0.56 | Cc1ccc2c(c1)C(=O)N(C)c1cnc(Nc3cccc(S(=O)(=O)N4CCN(C)CC4)c3)nc1N2C |  |
| 0.041 | 0.058 | Cc1ccc2c(c1)C(=O)N(C)c1cnc(Nc3ccc(S(=O)(=O)N4CCC(O)CC4)cc3)nc1N2C |  |
| 0.0041 | 0.0043 | CN1C(=O)c2ccccc2N(C)c2nc(Nc3cccc(S(N)(=O)=O)c3)ncc21 | IC50 (Aurora kinase A): 0.0021 µM; IC50 (Aurora kinase B): 0.0046 µM |
| 0.0021 | 0.0065 | Cc1ccc2c(c1)C(=O)N(C)c1cnc(Nc3cccc(S(=O)(=O)N4CCC(O)CC4)c3)nc1N2C | IC50 [3]: 1.4 µM; IC50 [4]: 1.3 µM; IC50 [5]: 0.62 µM; IC50 [6]: 1 µM; IC50 [7]: 0.35 µM; IC50 [8]: > 10 µM |

Reference: ChEMBL document CHEMBL3853357, “Discovery of a Series of 5,11-Dihydro-6H-benzo[e]pyrimido[5,4-b][1,4]diazepin-6-ones as Selective PI3K-δ/γ Inhibitors” (ACS Med Chem Lett, 2016)
